The values that follow are results of earlier work, collected in patent publication US4713384A, “Selective method for blocking 5HT2 receptors” (Eli Lilly and Company, priority 1985, dated 1987).

For series [1] the following is noted: literature; cited from earlier work.
The subject of series [2] is alpha-receptors. The note with it: literature; cited from earlier work.
Series [3] relates to migraine. The note with it: clinical trial, Lance I, Table 1; cited from earlier work.
For series [4], the system named is 5HT2. The conditions noted are these: Awouters; cited from earlier work.
Series [5] concerns 5HT receptor. The conditions noted are these: cited from earlier work.

`CC[C@@H](CO)NC(=O)[C@@H]1C=C2c3cccc4c3c(cn4C)C[C@H]2N(C)C1` [methysergide]: the oxytocic action entry in series [1] is “no oxytocic action”. Further, the “alpha receptor activity in words” value in series [2] is “little or no action on alpha-receptors”. Also, in series [3], the “Improvement rate in migraine” value is reported as 64%. The “5HT2 agonist activity and side effects” value in series [4] is reported as “responsible for some of the side effects”. Also, the “5HT receptor blockade rating” value in series [5] (Berde, most active compound = 1,000) is given as 1,000. In addition, in series [5] (literature), the “5HT receptor activity (agonist/antagonist) in words” value was 5HT agonists at low concentrations but antagonistic at higher concentrations and partial 5HT agonist in certain blood vessels and very potent 5HT antagonist in the CNS.
